# Measurements from patent EP0237866A1, “Selective fungicidal use of asymmetric 2-pyridyl phosphoric acid esters” (priority 1986, dated 1987).
# Columns and labels:
# [1] = tested on: Erysiphe graminis f.sp.hordei; test: Erysiphe test (barley) / protective; type: in vivo; conditions: evaluated 7 days after inoculation
# Description: Erysiphe-Test (Gerste) / protektiv
# Lösungsmittel: 100 Gewichtsteile Dimethylformamid Emulgator: 0,25 Gewichtsteile Alkylarylpolyglykolether
# (§1) Zur Herstellung einer zweckmäßigen Wirkstoffzubereitung vermischt man 1 Gewichtsteil Wirkstoff mit den angegebenen Mengen Lösungsmittel und Emulgator und verdünnt das Konzentrat mit Wasser auf die gewünschte Konzentration.
# Zur Prüfung auf protektive Wirksamkeit besprüht man junge Pflanzen mit der Wirkstoffzubereitung taufeucht. Nach Antrocknen des Spritzbelages werden die Pflanzen mit Sporen von Erysiphe graminis f.sp.hordei bestäubt.
# Die Pflanzen werden in einem Gewächshaus bei einer Temperatur von ca. 20°C und einer relativen Luftfeuchtigkeit von ca. 80 % aufgestellt, um die Entwicklung von Mehltaupusteln zu begünstigen.
# 7 Tage nach der Inokulation erfolgt die Auswertung.
# Venturia inaequalis = test: Venturia test (apple) / protective; type: in vivo; conditions: apple plants, protective spray, 5 ppm active compound, evaluated 12 days after inoculation
# Description: Venturia-Test (Apfel) / protektiv
# Lösungsmittel: 4,7 Gewichtsteile Aceton Emulgator: 0,3 Gewichtsteile Alkylarylpolyglykolether
# as §1
# Zur Prüfung auf protektive Wirksamkeit bespritzt man junge Pflanzen mit der Wirkstoffzubereitung bis zur Tropfnässe. Nach Antrocknen des Spritzbelages werden die Pflanzen mit einer wäßrigen Konidiensuspension des Apfelschorferregers (Venturia inaequalis) inokuliert und verbleiben dann 1 Tag bei 20°C und 100 X relativer Luftfeuchtigkeit in einer Inkubationskabine.
# Die Pflanzen werden dann im Gewächshaus bei 20 °C und einer relativen Luftfeuchtigkeit von ca. 70 % aufgestellt.
# 12 Tage nach der Inokulation erfolgt die Auswertung.
# Cutinase = biological target: T1, Cutinase (Fusarium vanettenii, UniProt P00590); test: Cutinase inhibitor test; type: biochemical, Fusarium solani f.sp.pisi; conditions: p-Nitrophenylbutyrat as substrate, 30 min incubation at 30°C, phosphate buffer 0,1 M pH 8 + 0,3% Triton X-100; read-out: I50
# T1 construct: Das Enzym Cutinase wird aus Kulturfiltrat von Fusarium solani f.sp.pisi nach Standardmethoden gereinigt; endogenous in cells; host or cells: Culture filtrate of Fusarium solani f.sp. pisi (enzyme secreted by the fungus and purified)
# T1 sequence (P00590 32-230): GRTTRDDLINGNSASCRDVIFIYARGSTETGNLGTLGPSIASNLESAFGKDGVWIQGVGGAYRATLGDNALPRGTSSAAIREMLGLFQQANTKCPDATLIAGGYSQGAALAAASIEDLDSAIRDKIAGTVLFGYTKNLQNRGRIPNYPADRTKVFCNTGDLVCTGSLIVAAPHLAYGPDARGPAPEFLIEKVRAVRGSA
# Description: Das Enzym Cutinase wird aus Kulturfiltrat von Fusarium solani f.sp.pisi nach Standardmethoden gereinigt und photometrisch mit p-Nitrophenylbutyrat als Substrat getestet (P.E. Kolattukudy, K.E. Espelie, C.L. Soliday (1981), Meth. Enzymol. 71, 652).
# Die Inhibitor-Wirkung wird einer beschriebenen Methode folgend bestimmt (W. Köller, C.R. Allan, P.E. Kolattukudy (1982), Phytopathoiopy 72, 1425): Eine geeignete Menge Enzym wird zusammen mit dem Wirkstoff in gewünschter Konzentration in 1 ml Phosphatpuffer (0,1 M; pH 8) + 0,3% (w/v) Triton X-100 bei 30°C inkubiert. Nach 30 Minuten Inkubation wird die enzymatische Restaktivität bestimmt. Anhand einer Dosis-Wirkungs-Beziehung wird der I(50)-Wert (= diejenige Wirkstoff-Konzentration, die zu einer Inhibierung von 50 % führt) ermittelt.
# [2] = protective spray, 0,0025 Gew.-% in the spray liquor
smiles,measurement,setting,value
"CCOP(=O)(OCC)Oc1nc(Cl)c(Cl)cc1Cl [A, 0,0-Diethyl-0-(3,5,6-trichlor-2-pyridyl)-phosphorsäureester, reference compound]",Krankheits-befall in % der unbe-handelten Kontrolle,"[1]; protective spray, 0,005 Gew.-% in the spray liquor","58,7 % der unbe-handelten Kontrolle"
same,Befall in % bei einer Wirkstoffkonzentration von 5 ppm,Venturia inaequalis,74%
same,IC50,Cutinase,190 nM
"CCCCOP(=O)(OCC)Oc1nc(Cl)c(Cl)cc1Cl (centres unmarked) [Beispiel 1, O-n-Butyl-O-ethyl-O-(3,5,6-trichlor-2-pyridyl)-phosphorsiureester]",Befall in % bei einer Wirkstoffkonzentration von 5 ppm,Venturia inaequalis,27%
CCCCCCOP(=O)(OCC)Oc1nc(Cl)c(Cl)cc1Cl (centres unmarked) [Beispiel 2],Befall in % bei einer Wirkstoffkonzentration von 5 ppm,Venturia inaequalis,11%
CCCCCCCCOP(=O)(OCC)Oc1nc(Cl)c(Cl)cc1Cl (centres unmarked) [Beispiel 3],Befall in % bei einer Wirkstoffkonzentration von 5 ppm,Venturia inaequalis,19%
CCCCOP(=O)(OC)Oc1nc(Cl)c(Cl)cc1Cl (centres unmarked) [Beispiel 4],Befall in % bei einer Wirkstoffkonzentration von 5 ppm,Venturia inaequalis,5%
same,IC50,Cutinase,36 nM
CCCCCCOP(=O)(OC)Oc1nc(Cl)c(Cl)cc1Cl (centres unmarked) [Beispiel 5],Befall in % bei einer Wirkstoffkonzentration von 5 ppm,Venturia inaequalis,3%
CCCCCCOP(=O)(OC)Oc1cccc(Cl)n1 (centres unmarked) [Beispiel 7],Krankheits-befall in % der unbe-handelten Kontrolle,[1]; [2],"37,5 % der unbe-handelten Kontrolle"
CCCCOP(=O)(OC)Oc1cccc(Cl)n1 (centres unmarked) [Beispiel 8],Krankheits-befall in % der unbe-handelten Kontrolle,[1]; [2],"37,5 % der unbe-handelten Kontrolle"
CCCCCCOP(=O)(OC)Oc1ncc(Cl)cc1Cl (centres unmarked) [Beispiel 9],Krankheits-befall in % der unbe-handelten Kontrolle,[1]; [2],"25,0 % der unbe-handelten Kontrolle"
CCCCOP(=O)(OC)Oc1ncc(Cl)cc1Cl (centres unmarked) [Beispiel 10],Krankheits-befall in % der unbe-handelten Kontrolle,[1]; [2],"12,5 % der unbe-handelten Kontrolle"
CCCOP(=O)(OC)Oc1nc(Cl)c(Cl)cc1Cl (centres unmarked) [Beispiel 12],IC50,Cutinase,39 nM
